The values below come from patent EP0080682A1, “Bisisoquinolinium compound, pharmaceutical compositions and synthesis” (THE WELLCOME FOUNDATION LIMITED, priority 1981, dated 1983).

Read-outs that look alike come from different tables or passages of the source.

Experiment [1] concerns isometric twitch of the tibialis anterior muscle. The experiment can be described thus: Neuromuscular block after intravenous administration: isometric twitch of the tibialis anterior muscle in response to peroneal nerve stimulation, Rhesus monkeys. The class given is in vivo. As to conditions: Rhesus Monkey. From the text: (§1) Trans, trans-2,2'-(trimethylenebis(carbonyloxytri- methylene))bis(1,2,3,4-tetrahydro-6,7,8-trimethoxy-2-methyl-1-(3,4,5-trimethoxybenzyl)isoquinolinium) dichloride (prepared as in Example 3) was examined by intravenous administration to cats and Rhesus monkeys, maintained by artificial ventilation and prepared for recording the isometric twitch of the tibialis anterior muscle in response to stimulation of peroneal nerve.

Experiment [2] shares this test system. As to the kind of experiment: Neuromuscular block after intravenous administration: isometric twitch of the tibialis anterior muscle in response to peroneal nerve stimulation, cats. The class given is in vivo. The settings on record: Cat.
From the text: as §1

For experiment [3] the following is noted: cited from earlier work.
The mark [4] stands for this setting: intravenous, time from injection to 95% recovery.

For `COc1cc(CC2c3c(cc(OC)c(OC)c3OC)CC[N+]2(C)CCCOC(=O)CCCC(=O)OCCC[N+]2(C)CCc3cc(OC)c(OC)c(OC)c3C2Cc2cc(OC)c(OC)c(OC)c2)cc(OC)c1OC` (stereo not drawn) [Example 1, trans, trans-2,2'-(trimethylenebis(carbonyloxytrimethy-lene))bis(1,2,3,4-tetrahydro-6,7,8-trimethoxy-2-methyl-1-(3,4,5-trimethoxybenzyl)isoquinolinium) dichloride], the ED95 was determined as 0.05 mg/kg in experiment [1] (Macaca mulatta, intravenous administration, artificial ventilation, 4 animals) and 0.03 mg/kg in experiment [2] (Felis catus, intravenous administration, artificial ventilation, 2 animals). Also, the Duration entry in experiment [1] (setting [4]) is given as “≃15^+ Minutes”; in experiment [2] (setting [4]), “≃25 Minutes”.

In the case of `COc1cc2c3cc1Oc1cc(ccc1O)C[C@@H]1c4c(cc(OC)c(O)c4Oc4ccc(cc4)C[C@@H]3N(C)CC2)CC[N+]1(C)C` [d-tubocurarine], the “dose of agents most widely used clinically” value in experiment [3] (clinical use, compared with intravenous paralysing dose of compounds of formula (I)) is 0.4 to 0.6 mg/kg.

Consider `CC(=O)O[C@H]1C[C@@H]2CC[C@@H]3[C@H](CC[C@@]4(C)[C@H]3C[C@H]([N+]3(C)CCCCC3)[C@@H]4OC(C)=O)[C@@]2(C)C[C@@H]1[N+]1(C)CCCCC1` [pancuronium], for which the “dose of agents most widely used clinically” value in experiment [3] (in vivo) is 0.06 to 0.08 mg/kg.
